Read-outs that look alike come from different tables or passages of the source.
Key:
[1] = test system: MCF-7 vector control cells; test: Anchorage-independent soft agar colony formation, MCF-7 vector control cells; format: cell-based, human; details: vector control cells; 100 nM OHT plus 10 nM ICI or 20 nM PD98065
Description: (§1) Cells were starved for 2 days in PRF MEM (InVitrogen) supplemented with 5% fetal bovine serum (FBS, Summit Biotechnology, Fort Collins, Colo.), 6 ng/ml insulin, 200 units/ml penicillin, and 200 μg/ml streptomycin. Soft agar assays were performed in sixwell plates. Into each well, 1.5 ml of prewarmed (50° C.) 0.7% SeaPlaque agarose (FMC, Rockland, Me.) was added and dissolved in PRF MEM supplemented with 5% charcoal stripped FBS (Summit, Fort Collins, Colo.) to serve as the bottom layer, and allowed to solidify at 4° C. until to use. 0.5×10^4 cells as a single cell suspension were suspended in prewarmed (37° C.) of the same media, 4 ml of 0.5% SeaPlaque agarose was then added, and this suspension then plated as the top layer by adding it dropwise to the solidified bottom layer plates. Plates were cooled for 2 hours, and then transferred to a 37° C. humidified incubator. Two days after plating, media containing control vehicle, 1 nM estradiol, 100 nM 4-OH-Tam, 100 nM OHT plus 10 nM ICI, or 100 nM OHT plus 20 nM […] was added to the top cell layer, and the appropriate media was replaced every two days. After 14 days, the colonies were fixed, and the colony number of colonies >50 cells from quadruplicate assays were then counted. The data shown is the mean colony number of four plates, and is representative of two independent experiments.
(§2) In pancreatic cells, ectopic expression of MKP3 is reported to result in a suppression of cell growth (Fuqua et al., 2003). Thus, the growth characteristics of the MCF-7 stable MKP3 transfectants under different hormonal conditions were investigated using anchorageindependent soft agar assay (FIG. 4B).

MCF-7-MKP3 cells = test: Anchorage-independent soft agar colony formation, MKP3-overexpressing MCF-7 transfectants; format: cell-based, human; details: MKP3-transfected cells; 100 nM OHT plus 10 nM ICI or 20 nM
Description: MCF-7 cells were originally obtained from Dr. Benita Katzenellebogen, but have been maintained in the inventors' laboratory for over 10 years (Fuqua et al., 2000). MCF-7 cells were maintained in Minimal Essential Medium (MEM, InVitrogen) supplemented with 5% fetal bovine serum (Summit Biotechnology, Fort Collins, Colo.), 200 U/ml penicillin, and 200 μg/ml streptomycin. Cells were incubated at 37° C. in 5% CO2. To generate MCF-7 cells stably overexpressing MKP3, 5 μg of the plasmid pcDNA3-MKP3-V5 (Furukawa et al., 2003) or empty vector (pcDNA3-His-V5, InVitrogen), were transfected into the cells using Fugene 6 reagent Roche Clinical Laboratories, Indianapolis, Ind.) in 100 mm tissue culture dishes following the manufacturer's protocol. Stable clones overexpressing MKP3 were selected as described (Fuqua et al., 2000), and positive clones were identified using immunoblot analysis with an anti-V5 antibody (1:5000 dilution)
as §1, §2

TR breast cancer = details: second-line therapy; cited from earlier work
JNK = test: Immunoblot of phospho-JNK in MCF-7 transfectants; format: cell-based, human; details: vector control cells treated with the inhibitor
Description: (§3) Cells grown in 100 mm dishes were starved in phenol red-free (PRF), serum-free MEM (Specialty Media, Phillipsburg, N.J.) for 48 hours, and were then treated for 2 hours with vehicle (ethanol), estrogen (100 nM, 20), or OHT (100 nM). After treatment, cells were rinsed twice with ice-cold phosphate-buffered saline (PBS) and were then lysed immediately with 200 μl of cell lysis buffer (20 mM Tris HCl, pH 7.4, 150 mM NaCl, 1 mM B-glycerophosphate, 1 mM sodium orthovanadate, and 10% glycerol plus 1:100 proteinase inhibitor cocktail III) (Calbiochem, LaJolla, Calif.) per 100 mm tissue culture. The cell lysates were cleared by centrifugation at 16,100×g for 10 minutes at 4° C. Protein concentration was determined with the BCA Protein Assay kit (Pierce, Rockfold, Ill.) according to the manufacturer's directions. Equal amount of cell extracts were resolved under denaturing conditions by electrophoresis in 8-10% polyacrylamide gels containing sodium dodecyl sulfate (SDS-PAGE), and transferred to nitrocellulose membranes by electroblotting (Schleicher & Schuell, Keene, NH). […]

ERK 1,2 MAPK = test: Immunoblot of phospho-MAPK in MCF-7 transfectants; format: cell-based, human
Description: (§4) Cells grown in 100 mm dishes were starved in phenol red-free (PRF), serum-free MEM (Specialty Media, Phillipsburg, N.J.) for 48 hours, and were then treated for 2 hours with vehicle (ethanol), estrogen (100 nM, 20), or OHT (100 nM). After treatment, cells were rinsed twice with ice-cold phosphate-buffered saline (PBS) and were then lysed immediately with 200 μl of cell lysis buffer (20 mM Tris HCl, pH 7.4, 150 mM NaCl, 1 mM B-glycerophosphate, 1 mM sodium orthovanadate, and 10% glycerol plus 1:100 proteinase inhibitor cocktail III) (Calbiochem, LaJolla, Calif.) per 100 mm tissue culture. The cell lysates were cleared by centrifugation at 16,100×g for 10 minutes at 4° C. Protein concentration was determined with the BCA Protein Assay kit (Pierce, Rockfold, Ill.) according to the manufacturer's directions. Equal amount of cell extracts were resolved under denaturing conditions by electrophoresis in 8-10% polyacrylamide gels containing sodium dodecyl sulfate (SDS-PAGE), and transferred to nitrocellulose membranes by electroblotting (Schleicher & Schuell, Keene, NH). After blocking of the transferred nitrocellulose membrane with TBST (20 mM Tris pH 7.6, 150 mM NaCl, 0.1% Tween-20) supplemented with 5% non-fat milk for 1 hour at room temperature, the membrane was incubated with primary antibodies either for 1 hour at room temperature (anti-ERα, 1:100 dilution; anti-AIB1, 1:100 dilution; anti-ERK2, 1:500 dilution; anti-Cyclin D1,1:500 dilution; anti-PR, C-19, 1:200 dilution; anti-p190, 1:1000 dilution; anti-V5, 1:5000 dilution), or overnight at 4° C. (anti-phospho MAPK, 1:1000 dilution; anti-phosphor-Ser118-ERα; 1:1000 dilution; MAPK p42/44, 1:1000 dilution), incubated with secondary antibodies for 1 hour at room temperature and then developed with Enhanced Chemiluminescence Reagents (Amersham Pharmacia Biotech, Piscataway, N.J.).
MAPK activity is tightly regulated by phosphorylation and dephosphorylation. MKP3 participates in a bidirectional regulatory loop with ERK2 MAPK, whereby ERK2 substrate binding is associated with catalytic activation of MKP3, and activated MKP3 negatively regulates pERK2 (Camps et al., 1998). […] Immunoblot analysis with anti-V5 was used to detect ectopic MKP3 expression in the two MKP3 transfectants (FIG. 5A, top panel). FIGS. 5B and 5C provide quantitation of results in FIG. 5A.

[2] = test system: progesterone receptor (PR) A and B forms; test: Immunoblot of PR-A and PR-B in MCF-7 transfectants; format: cell-based, human; details: MKP3 overexpressing cells
Description: as §4
(§5) As expected with two hours of estrogen treatment, no induction of the two PR isoforms were detected in either the control vector (Con 1 and 2), or in the MKP3-transfected cells (FIG. 11A). […]

cyclin D1 (CCND1) = test: Immunoblot of CCND1 in MCF-7 transfectants; format: cell-based, human; details: MKP3 overexpressing cells
Description: as §3, §5

ERα = test: Immunoblot of phospho-S118 ERα and total ERα in MCF-7 transfectants; format: cell-based, human; details: control and Tam-treated MKP3.2 cells
Description: as §4

breast cancer = details: cited from earlier work

SMILES: C[C@]12CC[C@@H]3c4ccc(O)cc4C[C@@H](CCCCCCCCC[S+]([O-])CCCC(F)(F)C(F)(F)F)[C@H]3[C@@H]1CC[C@@H]2O (stereo partly shown) [ICI182,780]
- effect on Tam-induced colony formation [1]: completely blocked
- effect on Tam-induced colony formation (MCF-7-MKP3 cells): completely blocked
- share of TR breast cancer patients who respond (TR breast cancer): About two-thirds

SMILES: COc1cccc(-c2cc(=O)c3ccccc3o2)c1N [PD98059]
- pJNK level (JNK): elevated
- effect on Tam-induced colony formation [1]: completely blocked
- effect on the increase in pMAPK (ERK 1,2 MAPK; control and Tam-treated MKP3.2 cells): effectively inhibited
- effect on activation of MAPK (ERK 1,2 MAPK; vector control cells, all treatment conditions): blocked activation of MAPK
- effect on PR-B levels in Tam-treated cells [2]: restored
- effect on tamoxifen induction of CCND1 (cyclin D1 (CCND1)): blocked
- effect on the increase in pS118 ERα (ERα): effectively inhibited
- effect on Tam-induced colony formation (MCF-7-MKP3 cells): completely blocked

SMILES: CC(C)(C#N)c1cc(Cn2cncn2)cc(C(C)(C)C#N)c1 [anastrazole]
- benefit compared to tamoxifen (breast cancer; ER+/PR+ group): modest advantage
- benefit compared to tamoxifen (breast cancer; ER+/PR− subgroup): major benefit

Source: patent publication US20070059720A9 (priority 2004, published 2007)
